Earlier results in patent US8709164B2, “Methods and compositions for dislodging debris particles from a substrate” (University of South Carolina, priority 2010, dated 2014).

What was measured:
[1] = tested on: D. farinae; conditions: among 15 chemicals
[2] = tested on: D. pteronyssinus; conditions: washing soak with addition of 0.03% benzyl benzoate

SMILES | ability to kill D. farinae (words, order of potency) [1] | mites survived out of 10,000 [2]
Cl[C@H]1[C@H](Cl)[C@@H](Cl)[C@@H](Cl)[C@H](Cl)[C@H]1Cl [Lindane] | most effective | 
CCN(CC)c1nc(C)cc(OP(=S)(OC)OC)n1 [pirimiphosmethyl] | most effective | 
O=C(OCc1ccccc1)c1ccccc1 [benzyl benzoate] | most effective | approximately 50
